The results in this text go back to patent publication US20240166693A1, “METHODS AND COMPOUNDS FOR MODULATING MYOTONIC DYSTROPY 1” (Design Therapeutics, Inc., priority 2020, published 2024).

Read-outs that look alike come from different tables or passages of the source.

This assay has as its system Myotonic Dystrophy 1 affected patient fibroblasts (Coriell GM04602; 1600 CTG repeats). Nature of the assay: DM1 foci reduction assay (CAG10-Cy3 FISH, average foci per nucleus). As to conditions: Homo sapiens, Fibroblast. The class given is cell-based. The method, then: DM1 foci reduction assay methods: Myotonic Dystrophy 1 affected patient fibroblasts (Coriell GM04602; 1600 CTG repeats) and wild type fibroblasts (Coriell GM07492; control line) were cultured separately in Gibco DMEM (1×)+4.5 g/L D-Glucose+L-Glutamine+110 mg/L Sodium Pyruvate, supplemented with 10% FBS and 1× Pen/Strep. Cells were maintained in incubator at 37° C. and 5% CO2 with media refresh every 48-72 hours.
At 90-95% confluency, both cell lines were harvested using Trypl-E then pelleted at 500×g for 5 minutes and were resuspended in media. DM1 fibroblasts were seeded in Agilent 96 well black plates at a density of 5,000 cells/well in 200 μL media; 8 wells were reserved for control fibroblasts. Plates were returned to incubator for 24 hours at 37° C. and 5% CO2.
Compounds were diluted from 10 mM stock to 1 mM in DMSO, then diluted once more to 6 μM (2× concentration) in media. Media was removed from all plates and cells were replenished with 100 μL media. Cells were treated in 8-point dose response, 1:3 fold dilution, 3 μM top dose via addition of 100 μL of 6 μM (2× concentration) compound to the 100 μL media with cells. Plates were returned to incubator for 48-hour time-course experiment at 37° C. and 5% CO2.
Following treatment, compounds were removed, and plates were washed with PBS, then cells were fixed in 75 μL 4% PFA solution for 20 minutes at room temperature. Plates were washed twice with PBS and twice with cold 70% ethanol before permeabilization with 250 μL cold 70% ethanol for 24-72 hours at −20° C.
After permeabilization, plates were washed once with a 30% formamide and 2×SSC buffer and rehydrated in that buffer for 15 minutes at room temperature. Cells were incubated overnight at 37° C. in 75 μL of a hybridization solution containing 30% formamide, 2×SSC, 25 mg/mL dextran sulfate, 2.5 mg/mL BSA, 0.2 μg/mL Herring sperm DNA, 2 mM vanadyl-ribonucleoside complex, and 5 nM CAG10-Cy3 probe.
Plates were washed once with 30% formamide in 2×SSC buffer, then twice with the buffer for 30 minutes at 37° C., 300 RPM in an incubating plate shaker. Cells were stained with 75 μL of 2.5 μg/mL DAPI in PBS for 5 minutes at room temperature. Plates were then washed twice with PBS and stored in 250 μL PBS. Plates were sealed with adhesive foil and wiped down with 70% ethanol.
Cells were imaged on a Cytation5 with a 20× objective sampling from 4 areas of each well. Nuclei were captured under DAPI channel and foci under RFP channel. Plates were analyzed on an average foci per nucleus per well basis.

Where [1] appears, read: DM1 fibroblasts, 48 h treatment, 8-point dose response, 3 μM top dose, read-out: Foci Reduction in Fibroblast EC50, 48 h.
[2] abbreviates: 48 h, read-out: Foci Reduction in Fibroblast EC50, 48 h (nM).

`Cc1nc(CCC(=O)NCCOCCOCCOCCOCCOCCNC(=O)CCNC(=O)c2nc(NC(=O)c3cc(NC(=O)CCNC(=O)c4nc(NC(=O)CCCNC(=O)c5cc(NC(=O)c6nc(NC(=O)CCNC(=O)c7cc(NC(=O)c8nccn8C)cn7C)cn6C)cn5C)cn4C)cn3C)cn2C)ccc1-c1cnc(NCc2c(F)ccc3c2CCO3)n2cnnc12` [Compound 62]: the EC50 under setting [1] is over 500 nM.
With `CN(C)[C@@H]1CN(C2CCc3cccc(F)c32)C[C@H]1c1ccc(N2CCN(C(=O)COCCOCCOCCOCCOCCNC(=O)CCNC(=O)c3nc(NC(=O)c4cc(NC(=O)CCNC(=O)c5nc(NC(=O)CCCNC(=O)c6cc(NC(=O)c7nc(NC(=O)CCNC(=O)c8cc(NC(=O)c9nccn9C)cn8C)cn7C)cn6C)cn5C)cn4C)cn3C)CC2)cc1` (stereo partly drawn) [Compound 174], the EC50 under setting [1] is over 500 nM.
On to `CCN(CC)CCCC[C@H](NC(=O)[C@H](CC(C)C)NC(=O)[C@H](C)NC(=O)[C@H](Cc1ccccc1)NC(=O)c1ccc(C(C)(C)C)cc1)C(=O)N[C@@H](CO)C(=O)NCCOCCOCCOCCOCCOCCNC(=O)c1cc(NC(=O)c2cc(NC(=O)c3nc(NC(=O)c4cc(NC(=O)CCCNC(=O)c5nc(NC(=O)CCNC(=O)c6cc(NC(=O)c7nccn7C)cn6C)cn5C)cn4C)cn3C)cn2C)cn1C` [Compound 113], for which the concentration giving a half-maximal response (EC50) under setting [2] is over 500 nM.
Regarding `CCN(c1cc(-c2ccc(CN3CCN(CCOCCOCCOCCOCCOCCOCCOCCOCCOCCOCCNC(=O)CCNC(=O)c4nc(NC(=O)c5cc(NC(=O)CCNC(=O)c6nc(NC(=O)CCCNC(=O)c7cc(NC(=O)c8nc(NC(=O)CCNC(=O)c9cc(NC(=O)c%10nccn%10C)cn9C)cn8C)cn7C)cn6C)cn5C)cn4C)CC3)cc2)cc(C(=O)NCc2c(C)cc(C)[nH]c2=O)c1C)C1CCOCC1` [Compound 167], the EC50 under setting [1] is over 500 nM.
On to `CCCNC(=O)CCNC(=O)c1nc(NC(=O)c2nc(NC(=O)CCNC(=O)c3nc(NC(=O)[C@@H](CCNC(=O)c4cc(NC(=O)c5nc(NC(=O)CCNC(=O)c6cc(NC(=O)c7nccn7C)cn6C)cn5C)cn4C)NC(=O)COCCOCCOCCOCCOCCNC(=O)[C@H](CO)NC(=O)[C@H](CCCCN(CC)CC)NC(=O)[C@H](CC(C)C)NC(=O)[C@H](C)NC(=O)[C@H](Cc4ccccc4)NC(=O)c4ccc(C(C)(C)C)cc4)cn3C)cn2C)cn1C` [Compound 137], for which the EC50 under setting [2] was under 100 nM.
Still for that read-out and setting: the result for `CC(C)C[C@H](NC(=O)[C@H](C)NC(=O)[C@H](Cc1ccccc1)NC(=O)c1ccc(C(C)(C)C)cc1)C(=O)N[C@@H](CCCCN(C)C1CC2CCC1C2)C(=O)N[C@@H](CO)C(=O)NCCOCCOCCOCCOCCOCCOCCOCCOCCOCCOCCNC(=O)c1cc(NC(=O)c2cc(NC(=O)c3nc(NC(=O)c4cc(NC(=O)[C@@H](N)CCNC(=O)c5nc(NC(=O)c6cc(NC(=O)c7cc(NC(=O)c8nccn8C)cn7C)cn6C)cn5C)cn4C)cn3C)cn2C)cn1C` (stereo partly drawn) [Compound 119] reads over 500 nM.
For `CC(C)CN(CCCC[C@H](NC(=O)[C@H](CCCN1CCOCC1)NC(=O)[C@@H](NC(=O)[C@H](Cc1ccccc1)NC(=O)c1ccc(C(C)(C)C)cc1)C1CCC1)C(=O)N[C@@H](CO)C(=O)NCCOCCOCCOCCOCCOCCNC(=O)CCNC(=O)c1nc(NC(=O)c2cc(NC(=O)CCNC(=O)c3nc(NC(=O)CCCNC(=O)c4cc(NC(=O)c5nc(NC(=O)CCNC(=O)c6cc(NC(=O)c7nccn7C)cn6C)cn5C)cn4C)cn3C)cn2C)cn1C)C1CC2CCC1C2` (stereo partly drawn) [Compound 148], the concentration for a half-maximal effect (EC50) under setting [2] is over 500 nM.
As to `CC(C)C[C@H](NC(=O)[C@H](Cc1ccccc1)NC(=O)[C@H](CCCCN(C)C(C)C)NC(=O)[C@@H]1C[C@@H]2CCCC[C@@H]2N1)C(=O)NCCOCCOCCOCCOCCOCCNC(=O)CCNC(=O)c1nc(NC(=O)c2cc(NC(=O)CCNC(=O)c3nc(NC(=O)CCCNC(=O)c4cc(NC(=O)c5nc(NC(=O)CCNC(=O)c6cc(NC(=O)c7nccn7C)cn6C)cn5C)cn4C)cn3C)cn2C)cn1C` [Compound 145], the EC50 under setting [2] fell in the range of 100 to 500 nM.
As for `CCN(CC)CCCC[C@H](NC(=O)CCCCOCCNC(=O)c1ccc(C(C)(C)C)cc1)C(=O)N[C@@H](CO)C(=O)NCCOCCOCCOCCOCCOCCNC(=O)CCNC(=O)c1nc(NC(=O)c2cc(NC(=O)CCNC(=O)c3nc(NC(=O)CCCNC(=O)c4cc(NC(=O)c5nc(NC(=O)CCNC(=O)c6cc(NC(=O)c7nccn7C)cn6C)cn5C)cn4C)cn3C)cn2C)cn1C` [Compound 138], the EC50 under setting [2] lay in the range of 100 to 500 nM.

A word on the EC50: it is the concentration that produces a half-maximal response.
